The assay has as its target T1, HSA, human serum albumin (Homo sapiens, UniProt P02768).
T1 construct: gene ALB
The assay is described as follows: fluorescence polarization, off-DNA. Format: binding. (Polarisation of emitted light reports the rotation of a fluorescent probe.)

The record followed here is article PMC7675038, “A Single‐Stranded DNA‐Encoded Chemical Library Based on a Stereoisomeric Scaffold Enables Ligand Discovery by Modular Assembly of Building Blocks” (Advanced Science, 2020).

As usually defined, the Kd is the free concentration of one partner at which half of the binding sites on the other are occupied at equilibrium, for simple one-to-one binding. Low readings indicate tighter binding, high ones weaker binding.

T1 sequence (P02768 25-609): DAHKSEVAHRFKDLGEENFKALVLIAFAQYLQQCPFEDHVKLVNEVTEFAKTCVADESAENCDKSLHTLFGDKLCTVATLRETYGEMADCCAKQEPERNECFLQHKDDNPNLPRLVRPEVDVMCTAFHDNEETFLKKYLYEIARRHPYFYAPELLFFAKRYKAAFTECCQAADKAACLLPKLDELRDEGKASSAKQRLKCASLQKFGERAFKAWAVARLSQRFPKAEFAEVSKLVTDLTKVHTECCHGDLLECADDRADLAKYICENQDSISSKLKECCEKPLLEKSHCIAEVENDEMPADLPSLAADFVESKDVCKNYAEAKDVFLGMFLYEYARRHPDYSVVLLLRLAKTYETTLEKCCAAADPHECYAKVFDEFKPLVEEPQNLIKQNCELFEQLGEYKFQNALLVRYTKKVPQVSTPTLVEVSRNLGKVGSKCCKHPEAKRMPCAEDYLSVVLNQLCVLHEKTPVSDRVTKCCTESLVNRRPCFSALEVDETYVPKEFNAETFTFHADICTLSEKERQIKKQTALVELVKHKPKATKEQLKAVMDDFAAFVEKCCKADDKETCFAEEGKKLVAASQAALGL

Turning to `Cc1ccc(C(=O)NCC(=O)N[C@H](CCC(=O)N[C@@H](CCC(N)=O)C(=O)O)C(=O)N2CCc3nc(-c4ccccc4)ncc3C2)cc1` [compound 16, 16], binding was characterised by a dissociation constant (Kd) of 11 ± 2 µM.

With `Cc1ccc(C(=O)NCC(=O)N[C@@H](CCC(=O)N[C@@H](CCC(N)=O)C(=O)O)C(=O)N2CCc3nc(-c4ccccc4)ncc3C2)cc1` [compound 17, 17], the Kd is 5 ± 3 µM.
